Measured values as given in patent US11524966B1 (Valo Early Discovery, Inc., priority 2017, dated 2022).
pIC50: −log10 of the molar value.

molecular target: T1, USP25 (USP25-His6, Boston Biochem E-546) (Homo sapiens, UniProt Q9UHP3); assay: Ubiquitin-Rhodamine 110 Assay for USP25 Activity, Example A-2; type: biochemical; conditions: Ubiquitin-Rhodamine 110 assay, Example A-2; read-out: USP25 A-2 IC50 range
T1 construct: His6; purchased Boston Biochem E-546
T1 sequence (Q9UHP3 1-1055): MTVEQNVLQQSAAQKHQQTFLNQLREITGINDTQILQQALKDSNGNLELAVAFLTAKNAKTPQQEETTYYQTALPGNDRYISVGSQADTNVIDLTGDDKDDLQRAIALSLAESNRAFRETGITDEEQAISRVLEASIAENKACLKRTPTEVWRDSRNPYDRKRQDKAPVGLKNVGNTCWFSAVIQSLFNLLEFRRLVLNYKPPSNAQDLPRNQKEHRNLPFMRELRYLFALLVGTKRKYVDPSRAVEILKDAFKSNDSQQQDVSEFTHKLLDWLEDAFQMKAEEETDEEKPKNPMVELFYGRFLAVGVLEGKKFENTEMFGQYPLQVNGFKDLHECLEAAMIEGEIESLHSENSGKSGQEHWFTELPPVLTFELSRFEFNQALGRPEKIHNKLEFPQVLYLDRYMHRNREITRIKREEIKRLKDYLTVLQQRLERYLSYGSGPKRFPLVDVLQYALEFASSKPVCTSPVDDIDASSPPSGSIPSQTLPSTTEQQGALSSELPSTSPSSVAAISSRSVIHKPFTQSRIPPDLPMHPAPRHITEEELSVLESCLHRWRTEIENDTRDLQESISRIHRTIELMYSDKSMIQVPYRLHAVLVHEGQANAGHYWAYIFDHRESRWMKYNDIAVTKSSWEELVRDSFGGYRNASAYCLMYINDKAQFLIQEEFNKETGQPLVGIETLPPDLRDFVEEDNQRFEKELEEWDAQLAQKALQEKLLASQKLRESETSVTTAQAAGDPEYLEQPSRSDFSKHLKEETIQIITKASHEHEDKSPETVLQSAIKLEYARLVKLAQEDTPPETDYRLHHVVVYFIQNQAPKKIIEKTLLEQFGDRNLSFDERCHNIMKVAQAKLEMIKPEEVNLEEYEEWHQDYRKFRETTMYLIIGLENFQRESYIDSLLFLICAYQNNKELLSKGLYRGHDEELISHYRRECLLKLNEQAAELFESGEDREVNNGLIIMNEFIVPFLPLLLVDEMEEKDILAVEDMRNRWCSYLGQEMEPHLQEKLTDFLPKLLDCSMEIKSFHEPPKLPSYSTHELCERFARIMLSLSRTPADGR
In short: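 Inhibition is quantified as IC50 by 4-parameter fit of fluorescence (485/535 nm) from Ub-Rh110 hydrolysis. Enzyme USP25-His6 at 75 pM with 30 min compound preincubation, then 25 nM substrate for 45 min at room temperature in pH 8.0 Tris buffer containing BME.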

Row | Compound | pIC50
1 | CO[C@H]1CN(c2ccc3c(c2)OC[C@H](NC(=O)c2sc4nc(C)cnc4c2N)C3)C[C@@H]1N [Example 117, 7-amino-N-[(3R)-7-[(3S,4S)-3-amino-4-methoxypyrrolidin-1-yl]-3,4-dihydro-2H-1-benzopyran-3-yl]-3-methylthieno[2,3-b]pyrazine-6-carboxamide] | 5.70 to 6.70
2 | CO[C@H]1CN(c2ccc3c(c2)OC[C@H](NC(=O)c2sc4nc(C)sc4c2N)C3)C[C@@H]1N [Example 118, 6-amino-N-[(3R)-7-[(3S,4S)-3-amino-4-methoxypyrrolidin-1-yl]-3,4-dihydro-2H-1-benzopyran-3-yl]-2-methylthieno[2,3-d][1,3]thiazole-5-carboxamide] | 5.70 to 6.70
3 | CO[C@H]1CCN(c2ccc3c(c2)OC[C@H](NC(=O)c2sc4nc(C)ccc4c2N)C3)C[C@@H]1N [Example 119, 3-amino-N-[(3R)-7-[(3S,4S)-3-amino-4-methoxypiperidin-1-yl}-3,4-dihydro-2H-1-benzopyran-3-yl]-6-methylthieno[2,3-b]pyridine-2-carboxamide] | 5.70 to 6.70
4 | CO[C@@H]1CCN(c2ccc3c(c2)OC[C@H](NC(=O)c2sc4nc(C)ccc4c2N)C3)C[C@H]1N [Example 120, 3-amino-N-[(3R)-7-[(3R,4R)-3-amino-4-methoxypiperidin-1-yl]-3,4-dihydro-2H-1-benzopyran-3-yl]-6-methylthieno[2,3-b]pyridine-2-carboxamide] | 5.70 to 6.70
5 | CO[C@@H]1CN(c2ccc3c(c2)OC[C@H](NC(=O)c2sc4nc(C)ccc4c2N)C3)C[C@@H]1N [Example 121, 3-amino-N-[(3R)-7-[(3S,4R)-3-amino-4-methoxypyrrolidin-1-yl]-3,4-dihydro-2H-1-benzopyran-3-yl]-6-methylthieno[2,3-b]pyridine-2-carboxamide] | 5.70 to 6.70
6 | CO[C@H]1CN(c2ccc3c(c2)OC[C@H](NC(=O)c2sc4nc(C)ccc4c2N)C3)C[C@H]1N [Example 122, 3-amino-N-[(3R)-7-[(3R,4S)-3-amino-4-methoxypyrrolidin-1-yl]-3,4-dihydro-2H-1-benzopyran-3-yl]-6-methylthieno[2,3-b]pyridine-2-carboxamide] | 5.70 to 6.70
7 | Cc1ccc2c(N)c(C(=O)N[C@H]3COc4cc([C@H]5C[C@@H](N)C5)ccc4C3)sc2n1 [Example 123, 3-amino-6-methyl-N-[(3R)-7-[(1s,3S)-3-aminocyclobutyl]-3,4-dihydro-2H-1-benzopyran-3-yl]thieno[2,3-b]pyridine-2-carboxamide] | 5.70 to 6.70
8 | Cc1ccc2c(N)c(C(=O)N[C@H]3COc4cc([C@H]5C[C@H](N)C5)ccc4C3)sc2n1 [Example 124, 3-amino-6-methyl-N-[(3R)-7-[(1r,3r)-3-aminocyclobutyl]-3,4-dihydro-2H-1-benzopyran-3-yl]thieno[2,3-b]pyridine-2-carboxamide] | 5.70 to 6.70
9 | Cc1ccc2c(N)c(C(=O)N[C@H]3COc4cc(C5CC6COCC(C5)N6)ccc4C3)sc2n1 (stereo partly drawn) [Example 125, 3-amino-6-methyl-N-[(3R)-7-{3-oxa-9-azabicyclo[3.3.1]nonan-7-yl}-3,4-dihydro-2H-1-benzopyran-3-yl]thieno[2,3-b]pyridine-2-carboxamide] | 6.70 to 7.30
10 | Cc1ccc2c(N)c(C(=O)N[C@H]3COc4cc(N5CC6CCC(C5)N6)c(C#N)c(F)c4C3)sc2n1 [Example 126, 3-amino-N-[(3R)-6-cyano-7-{3,8-diazabicyclo[3.2.1]octan-3-yl}-5-fluoro-3,4-dihydro-2H-1-benzopyran-3-yl]-6-methylthieno[2,3-b]pyridine-2-carboxamide] | 7.30 to 9.00
11 | Cc1ccc2c(N)c(C(=O)N[C@H]3COc4cc(N5CC6CNCC(C5)O6)c(C#N)c(F)c4C3)sc2n1 [Example 127, 3-amino-N-[(3R)-6-cyano-5-fluoro-7-{9-oxa-3,7-diazabicyclo[3.3.1]nonan-3-yl}-3,4-dihydro-2H-1-benzopyran-3-yl]-6-methylthieno[2,3-b]pyridine-2-carboxamide] | 6.70 to 7.30
12 | CO[C@H]1CN(c2ccc3c(c2)OC[C@H](NC(=O)c2sc4nc(C)ccc4c2N)C3)CC[C@@H]1N [Example 128, 3-amino-N-[(3R)-7-[(3S,4S)-4-amino-3-methoxypiperidin-1-yl]-3,4-dihydro-2H-1-benzopyran-3-yl]-6-methylthieno[2,3-b]pyridine-2-carboxamide] | 5.70 to 6.70
13 | CO[C@@H]1CN(c2ccc3c(c2)OC[C@H](NC(=O)c2sc4nc(C)ccc4c2N)C3)CC[C@H]1N [Example 129, 3-amino-N-[(3R)-7-[(3R,4R)-4-amino-3-methoxypiperidin-1-yl]-3,4-dihydro-2H-1-benzopyran-3-yl]-6-methylthieno[2,3-b]pyridine-2-carboxamide] | 5.70 to 6.70
14 | CO[C@H]1CN(c2ccc3c(c2)CC[C@H](NC(=O)c2sc4nc(C)cnc4c2N)C3)C[C@@H]1N [Example 130, 7-amino-N-[(2S)-6-[(3S,4S)-3-amino-4-methoxypyrrolidin-1-yl]-1,2,3,4-tetrahydronaphthalen-2-yl]-3-methylthieno[2,3-b]pyrazine-6-carboxamide] | 5.70 to 6.70
15 | CCn1ccc2cc(C(=O)N[C@H]3CCc4cc(N5C[C@H](OC)[C@@H](N)C5)ccc4C3)nnc21 [Example 131, N-[(2S)-6-[(3S,4S)-3-amino-4-methoxypyrrolidin-1-yl]-1,2,3,4-tetrahydronaphthalen-2-yl]-7-ethyl-7H-pyrrolo[2,3-c]pyridazine-3-carboxamide] | < 5.70
16 | CCn1ccc2cc(C(=O)N[C@H]3CCc4cc(N5C[C@H](OC)[C@@H](N)C5)ccc4C3)cnc21 [Example 132, N-[(2S)-6-[(3S,4S)-3-amino-4-methoxypyrrolidin-1-yl]-1,2,3,4-tetrahydronaphthalen-2-yl]-1-ethyl-1H-pyrrolo[2,3-b]pyridine-5-carboxamide] | < 5.70
17 | CO[C@H]1CN(c2ccc3c(c2)CC[C@H](NC(=O)c2sc4nc(C)sc4c2N)C3)C[C@@H]1N [Example 133, 6-amino-N-[(2S)-6-[(3S,4S)-3-amino-4-methoxypyrrolidin-1-yl]-1,2,3,4-tetrahydronaphthalen-2-yl]-2-methylthieno[2,3-d][1,3]thiazole-5-carboxamide] | < 5.70
18 | COc1ccc2c(N)c(C(=O)N[C@H]3CCc4cc(N5C[C@H](OC)[C@@H](N)C5)ccc4C3)sc2n1 [Example 134, 3-amino-N-[(2S)-6-[(3S,4S)-3-amino-4-methoxypyrrolidin-1-yl]-1,2,3,4-tetrahydronaphthalen-2-yl]-6-methoxythieno[2,3-b]pyridine-2-carboxamide] | < 5.70
19 | COc1nc2sc(C(=O)N[C@H]3CCc4cc(N5C[C@H](OC)[C@@H](N)C5)ccc4C3)c(N)c2cc1F [Example 135, 3-amino-N-[(2S)-6-[(3S,4S)-3-amino-4-methoxypyrrolidin-1-yl]-1,2,3,4-tetrahydronaphthalen-2-yl]-5-fluoro-6-methoxythieno[2,3-b]pyridine-2-carboxamide] | < 5.70
20 | CO[C@H]1CN(c2cc(F)c3c(c2)CC[C@H](NC(=O)c2sc4nc(C)ccc4c2N)C3)C[C@@H]1N [Example 136, 3-amino-N-[(2S)-6-[(3S,4S)-3-amino-4-methoxypyrrolidin-1-yl]-8-fluoro-1,2,3,4-tetrahydronaphthalen-2-yl]-6-methylthieno[2,3-b]pyridine-2-carboxamide] | < 5.70
